From publication PMC9583322, “Vicinal Diaryl-Substituted Isoxazole and Pyrazole Derivatives with In Vitro Growth Inhibitory and In Vivo Antitumor Activity” (ACS Omega, 2022)

Columns and labels:
Huh7 = test: SRB cytotoxicity assay; assay type: cell-based, human; conditions: 72 h treatment
Method: (§1) HepG2, FOCUS, Hep3B, Mahlavu, Huh7, Hep40, and PLC-PRF-5 hepatocellular carcinoma cells; MCF-7, MDA-MB-231, MDA-MB-468, SKBR3, and ZR-75 breast cancer cells; and normal-like epithelial MCF-10A breast cells were cultured in low-glucose Dulbecco’s modified Eagle’s medium (DMEM) (Biological Industries-BI) supplemented with 10% fetal bovine serum (FBS) (Gibco/Thermo Fisher Scientific), 2 mM L-Glutamine (Gibco/Thermo Fisher Scientific), 100 Units/mL Penicillin/Streptomycin, and 0.1 mM non-essential amino acid (Gibco/Thermo Fisher Scientific). SNU475 hepatocellular carcinoma cells were maintained in RPMI (Biological Industries-BI) supplemented with 10% fetal bovine serum (FBS) (Gibco/Thermo Fisher Scientific), L-Glutamine (Gibco/Thermo Fisher Scientific), and 100 Units/mL Penicillin/Streptomycin, while ZR-75 breast cancer cells were cultured RPMI (Biological Industries-BI) supplemented with 10% fetal bovine serum (FBS) (Gibco/Thermo Fisher Scientific), 1× sodium pyruvate, and %4.5 glucose. Normal-like MCF-10A breast cells were sustained in DMEM/HAM’S F12 (Hyclone) supplemented with 10% fetal bovine serum (FBS) (Gibco/Thermo Fisher Scientific), EGF (20 ng/mL), Hydrocortisone ([…]), cholera toxin (100 ng/mL), insulin (10 μg/mL), and 100 Units/mL Penicillin/Streptomycin. The cells were cultivated at 37 °C in a humidified incubator under 5% CO2.
(§2) Mahlavu, FOCUS, SNU475 (1000 cell/well in 150 μL/well); Huh7, MCF7 (2500 cell/well in 150 μL/well); HepG2, Hep3B, SKBR3 (3000 cell/well in 150 μL/well); PLC-PRF-5, Hep40 (5000 cell/well in 150 μL/well); MDA-MB-231, MDA-MB-468, MCF10A (6000 cell/well in 150 μL/well); and ZR-75 (7500 cell/well in 150 μL/well) were cultured in 96-well plates and were inoculated in an incubator for 24 hours. The compounds were dissolved in dimethyl sulfoxide (DMSO) (Sigma, St Louis, MO) as a 20 mM stock solution. The treatment of cells with the compounds was done in a concentration range starting from 40 to 2.5 μM. The compounds which were below 2.5 μM were tested in a concentration range from 2.5 to 0.15 μM. End of the 72h compound treatment, the cells were fixed using 10% (v/v) trichloroacetic acid (MERCK) for an hour and washed with ddH2O, and left for air-drying. The fixed plates were stained with 50 μL of sulforhodamine B (SRB) solution (Sigma) at RT for 10 min. To remove unbound SRB dye, acetic acid was used to wash cells three times and left for drying. The protein-bound SRB was solubilized with 10 mM Tris-base (Sigma) and their absorbance was measured with a 96-well plate reader at 515 nm wavelength (ELx800, Biotek). The IC50 values of compounds were calculated in comparison with control group DMSO. Data with R^2 values larger than 0.9 are considered significant.

MCF7 = test: SRB cytotoxicity assay; assay type: cell-based, human; conditions: 72 h treatment
Method: as §1, §2

In the case of `Cc1onc(-c2ccc(OCc3cncn3C(C)C)cc2)c1-c1ccc(Cl)cc1` [compound 41, 4-(4-Chlorophenyl)-3-(4-((1-isopropyl-1H-imidazol-5-yl)methoxy)phenyl)-5-methylisoxazole], the IC50 (Huh7; Homo sapiens, Huh-7, 72 h) is reported as 2.5 µM, the IC50 (MCF7; Homo sapiens, MCF7, 72 h) is reported as 16.7 µM and the melting point is reported as 168.4 to 170.7 °C.

Work on `COc1cccc(COc2ccc(-c3noc(C)c3-c3ccc(Cl)cc3)cc2)c1` [compound 20, 4-(4-Chlorophenyl)-3-(4-((3-methoxybenzyl)oxy)phenyl)-5-methylisoxazole] yielded an IC50 (Huh7; Homo sapiens, Huh-7, 72 h) of 3.6 µM, an IC50 (MCF7; Homo sapiens, MCF7, 72 h) of 12 µM and a melting point of 105.1 to 106.8 °C.

In the case of `Cc1onc(-c2ccc(OCc3ccc(F)cc3)cc2)c1-c1ccc(Cl)cc1` [compound 26, 4-(4-Chlorophenyl)-3-(4-((4-fluorobenzyl)oxy)phenyl)-5-methylisoxazole], the IC50 (Huh7; Homo sapiens, Huh-7, 72 h) is reported as 19 µM, the IC50 (MCF7; Homo sapiens, MCF7, 72 h) is reported as 13 µM and the melting point is reported as 99.3 to 100.7 °C.

Work on `Cc1ccccc1COc1ccc(-c2noc(C)c2-c2ccccc2Cl)cc1` [compound 44, 5-Methyl-4-(2-chlorophenyl)-3-(4-((2-methylbenzyl)oxy)phenyl)isoxazole] yielded an IC50 (Huh7; Homo sapiens, Huh-7, 72 h) greater than 20 µM, an IC50 (MCF7; Homo sapiens, MCF7, 72 h) of 9.9 µM and a melting point of 103.8 to 104.4 °C.

Work on `Cc1onc(-c2ccc(OCc3ccc4ccccc4n3)cc2)c1-c1ccc(Cl)cc1` [compound 34, 4-(4-Chlorophenyl)-5-methyl-3-(4-(quinolin-2-ylmethoxy)phenyl)isoxazole] yielded an IC50 (Huh7; Homo sapiens, Huh-7, 72 h) of 9.1 µM, an IC50 (MCF7; Homo sapiens, MCF7, 72 h) greater than 20 µM and a melting point of 164.7 to 165.8 °C.

In the case of `Cc1ccc(-c2c(-c3ccc(OCc4ccccc4C)cc3)noc2C)nc1` [compound 54, 5-Methyl-3-(4-((2-methylbenzyl)oxy)phenyl)-4-(5-methylpyridin-2-yl)isoxazole], the IC50 (Huh7; Homo sapiens, Huh-7, 72 h) is reported as 6.4 µM, the IC50 (MCF7; Homo sapiens, MCF7, 72 h) is reported as greater than 20 µM and the melting point is reported as 121.4 to 122.3 °C.

For `Cc1cccc(COc2ccc(-c3noc(C)c3-c3ccc(Cl)cc3)cc2)n1` [compound 37, 4-(4-Chlorophenyl)-5-methyl-3-(4-((6-methylpyridin-2-yl)methoxy)phenyl)isoxazole], the IC50 (Huh7; Homo sapiens, Huh-7, 72 h) was 6.9 µM, the IC50 (MCF7; Homo sapiens, MCF7, 72 h) was 12.9 µM and the melting point was 126.1 to 127.5 °C.

With `Cc1cccc(COc2ccc(-c3noc(C)c3-c3ccc(Cl)cc3)cc2)c1C` [compound 30, 4-(4-Chlorophenyl)-3-(4-((2,3-dimethylbenzyl)oxy)phenyl)-5-methylisoxazole] the IC50 (Huh7; Homo sapiens, Huh-7, 72 h) was 15.3 µM, the IC50 (MCF7; Homo sapiens, MCF7, 72 h) was greater than 20 µM and the melting point was 167.2 to 168.5 °C.

In the case of `COc1ccccc1COc1ccc(-c2noc(C)c2-c2ccc(Cl)cc2)cc1` [compound 12, 4-(4-Chlorophenyl)-3-(4-((2-methoxybenzyl)oxy)phenyl)-5-methylisoxazole], the IC50 (Huh7; Homo sapiens, Huh-7, 72 h) is reported as greater than 20 µM, the IC50 (MCF7; Homo sapiens, MCF7, 72 h) is reported as greater than 20 µM and the melting point is reported as 156.8 to 157.7 °C.

Molecule `Cc1noc(C)c1COc1ccc(-c2noc(C)c2-c2ccc(Cl)cc2)cc1` [compound 39, 4-(4-Chlorophenyl)-3-(4-((3,5-dimethylisoxazol-4-yl)methoxy)phenyl)-5-methylisoxazole] has an IC50 (Huh7; Homo sapiens, Huh-7, 72 h) of 3.7 µM, an IC50 (MCF7; Homo sapiens, MCF7, 72 h) greater than 20 µM and a melting point of 138.9 to 141.3 °C.

`Cc1ccccc1COc1ccc(-c2noc(C)c2-c2ccc(Cl)cc2)cc1F` [compound 57, 4-(4-Chlorophenyl)-3-(3-fluoro-4-((2-methylbenzyl)oxy)phenyl)-5-methylisoxazole] showed an IC50 (Huh7; Homo sapiens, Huh-7, 72 h) of 9.8 µM, an IC50 (MCF7; Homo sapiens, MCF7, 72 h) greater than 20 µM and a melting point of 108 to 110.2 °C.

`COc1ccc(-c2c(-c3ccc(OCc4ccccc4C)cc3)noc2C)cc1` [compound 46, 5-Methyl-4-(4-methoxyphenyl)-3-(4-((2-methylbenzyl)oxy)phenyl)isoxazole] gave an IC50 (Huh7; Homo sapiens, Huh-7, 72 h) of 8.9 µM, an IC50 (MCF7; Homo sapiens, MCF7, 72 h) of 12.8 µM and a melting point of 121.3 to 122.7 °C.

`Cc1onc(-c2ccc(OCc3ccc(Cl)nc3)cc2)c1-c1ccc(Cl)cc1` [compound 38, 4-(4-Chlorophenyl)-3-(4-((6-chloropyridin-3-yl)methoxy)phenyl)-5-methylisoxazole] showed an IC50 (Huh7; Homo sapiens, Huh-7, 72 h) greater than 20 µM, an IC50 (MCF7; Homo sapiens, MCF7, 72 h) greater than 20 µM and a melting point of 168.2 to 170.8 °C.

`Cc1onc(-c2ccc(OCc3ccccc3C#N)cc2)c1-c1ccc(Cl)cc1` [compound 17, 2-((4-(4-(4-Chlorophenyl)-5-methylisoxazol-3-yl)phenoxy)methyl)benzonitrile] showed an IC50 (Huh7; Homo sapiens, Huh-7, 72 h) greater than 20 µM, an IC50 (MCF7; Homo sapiens, MCF7, 72 h) greater than 20 µM and a melting point of 111.2 to 112.5 °C.

For `Cc1ccc(COc2ccc(-c3noc(C)c3-c3ccc(Cl)cc3)cc2)c(C)c1` [compound 31, 4-(4-Chlorophenyl)-3-(4-((2,4-dimethylbenzyl)oxy)phenyl)-5-methylisoxazole], the IC50 (Huh7; Homo sapiens, Huh-7, 72 h) was 10.8 µM, the IC50 (MCF7; Homo sapiens, MCF7, 72 h) was greater than 20 µM and the melting point was 119.7 to 122.1 °C.

`COC(=O)c1ccc(COc2ccc(-c3noc(C)c3-c3ccc(Cl)cc3)cc2)cc1` [compound 28, Methyl-4-((4-(4-(4-chlorophenyl)-5-methylisoxazol-3-yl)phenoxy)methyl)benzoate] showed an IC50 (Huh7; Homo sapiens, Huh-7, 72 h) of 12.7 µM, an IC50 (MCF7; Homo sapiens, MCF7, 72 h) greater than 20 µM and a melting point of 110.7 to 111.9 °C.

In the case of `Cc1onc(-c2ccc(OCc3cccc(C#N)c3)cc2)c1-c1ccc(Cl)cc1` [compound 22, 3-((4-(4-(4-Chlorophenyl)-5-methylisoxazol-3-yl)phenoxy)methyl)benzonitrile], the IC50 (Huh7; Homo sapiens, Huh-7, 72 h) is reported as 20.7 µM, the IC50 (MCF7; Homo sapiens, MCF7, 72 h) is reported as greater than 20 µM and the melting point is reported as 114.4 to 115.6 °C.

Molecule `Cc1ccccc1COc1ccc(-c2noc(C)c2-c2ccc(F)cc2)cc1` [compound 45, 5-Methyl-4-(4-fluorophenyl)-3-(4-((2-methylbenzyl)oxy)phenyl)isoxazole] has an IC50 (Huh7; Homo sapiens, Huh-7, 72 h) of 16.7 µM, an IC50 (MCF7; Homo sapiens, MCF7, 72 h) greater than 20 µM and a melting point of 119 to 120.5 °C.

With `Cc1onc(-c2ccc(OCc3ccncc3)cc2)c1-c1ccc(Cl)cc1` [compound 33, 4-(4-Chlorophenyl)-5-methyl-3-(4-(pyridin-4-ylmethoxy)phenyl)isoxazole] the IC50 (Huh7; Homo sapiens, Huh-7, 72 h) was 11.4 µM, the IC50 (MCF7; Homo sapiens, MCF7, 72 h) was 14.5 µM and the melting point was 124.2 to 125.8 °C.

`Cc1onc(-c2ccc(OCc3ccccc3Cl)cc2)c1-c1ccc(Cl)cc1` [compound 16, 4-(4-Chlorophenyl)-3-(4-((2-chlorobenzyl)oxy)phenyl)-5-methylisoxazole] gave an IC50 (Huh7; Homo sapiens, Huh-7, 72 h) of 20 µM, an IC50 (MCF7; Homo sapiens, MCF7, 72 h) greater than 20 µM and a melting point of 105.2 to 106.4 °C.

In the case of `Cc1onc(-c2ccc(OCc3ccc(C(F)(F)F)o3)cc2)c1-c1ccc(Cl)cc1` [compound 42, 4-(4-Chlorophenyl)-5-methyl-3-(4-((5-(trifluoromethyl)furan-2-yl)methoxy)phenyl) isoxazole], the IC50 (Huh7; Homo sapiens, Huh-7, 72 h) is reported as 13.4 µM, the IC50 (MCF7; Homo sapiens, MCF7, 72 h) is reported as 14 µM and the melting point is reported as 105.7 to 106.8 °C.

In the case of `Cc1ccc(-c2c(-c3ccc(OCc4ccccc4C)cc3)noc2C)cc1` [compound 47, 5-Methyl-4-(4-methylphenyl)-3-(4-((2-methylbenzyl)oxy)phenyl)isoxazole], the IC50 (Huh7; Homo sapiens, Huh-7, 72 h) is reported as 1.8 µM, the IC50 (MCF7; Homo sapiens, MCF7, 72 h) is reported as 4.7 µM and the melting point is reported as 130.8 to 131.8 °C.

`COC(=O)c1cccc(COc2ccc(-c3noc(C)c3-c3ccc(Cl)cc3)cc2)c1` [compound 23, Methyl-3-((4-(4-(4-chlorophenyl)-5-methylisoxazol-3-yl)phenoxy)methyl)benzoate] gave an IC50 (Huh7; Homo sapiens, Huh-7, 72 h) greater than 20 µM, an IC50 (MCF7; Homo sapiens, MCF7, 72 h) of 13 µM and a melting point of 121.5 to 122.8 °C.

With “5-Methyl-4-(3-fluoromethylphenyl)-3-(4-((2-methylbenzyl)oxy)phenyl)isoxazole [compound 50]” the IC50 (Huh7) was 15 µM and the IC50 (MCF7) was greater than 20 µM.

`Cc1onc(-c2ccc(OCc3ccccc3C(F)(F)F)cc2)c1-c1ccc(Cl)cc1` [compound 18, 4-(4-Chlorophenyl)-5-methyl-3-(4-((2-(trifluoromethyl)benzyl)oxy)phenyl)isoxazole] gave an IC50 (Huh7; Homo sapiens, Huh-7, 72 h) of 14.2 µM, an IC50 (MCF7; Homo sapiens, MCF7, 72 h) greater than 20 µM and a melting point of 132.8 to 134.4 °C.

`Cc1ncccc1COc1ccc(-c2noc(C)c2-c2ccc(Cl)cc2)cc1` [compound 35, 4-(4-Chlorophenyl)-5-methyl-3-(4-((2-methylpyridin-3-yl)methoxy)phenyl)isoxazole] showed an IC50 (Huh7; Homo sapiens, Huh-7, 72 h) of 3.9 µM, an IC50 (MCF7; Homo sapiens, MCF7, 72 h) of 6.1 µM and a melting point of 107.2 to 108.8 °C.

“5-Methyl-4-(2,4-difluoromethylphenyl)-3-(4-((2-methylbenzyl)oxy)phenyl)isoxazole [compound 52]” gave an IC50 (Huh7) of 15 µM and an IC50 (MCF7) greater than 20 µM.
